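All cell lines were grown in 96-well plates and treated with compound for 48 hours. GI50: concentration for 50% inhibition of growth. TGI is the concentration that stops growth completely.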
How the values were obtained:
Experiment in all cases: growth of human tumour cells (NCI), 48 h
786-0 renal = test system: 786-0 renal
A498 renal = test system: A498 renal
A549 NSCLC = test system: A549 NSCLC
ACHN renal = test system: ACHN renal
BT-549 breast = test system: BT-549 breast
CAKI-1 renal = test system: CAKI-1 renal
CCRF-CEM leukemia = test system: CCRF-CEM leukemia
COLO 205 colon = test system: COLO 205 colon
DU-145 prostate = test system: DU-145 prostate
HCC-2998 colon = test system: HCC-2998 colon
HCT-116 colon = test system: HCT-116 colon
HCT-15 colon = test system: HCT-15 colon
HL-60(TB) leukemia = test system: HL-60(TB) leukemia
HOP-62 NSCLC = test system: HOP-62 NSCLC
HOP-92 NSCLC = test system: HOP-92 NSCLC
HS 578T breast = test system: HS 578T breast
HT29 colon = test system: HT29 colon
IGROV1 ovarian = test system: IGROV1 ovarian
K-562 leukemia = test system: K-562 leukemia
KM12 colon = test system: KM12 colon
LOX IMVI melanoma = test system: LOX IMVI melanoma
M14 melanoma = test system: M14 melanoma
MALME-3M melanoma = test system: MALME-3M melanoma
MCF7 breast = test system: MCF7 breast
MDA-MB-231 breast = test system: MDA-MB-231 breast
MDA-MB-435 = test system: MDA-MB-435
MOLT-4 leukemia = test system: MOLT-4 leukemia
NCI-H226 lung = test system: NCI-H226 lung

With `CC1(C)N=C(N)N=C(N)N1c1ccc(OCCCCNC(=O)Nc2cccc(S(=O)(=O)F)c2)c(Cl)c1` the GI50 (786-0 renal) was 2.75 µM, the TGI (786-0 renal) was > 100 µM and the GI50 (A498 renal) was 14.5 µM. The TGI (A498 renal) was > 100 µM, the GI50 (A549 NSCLC) was 2.27 µM and the TGI (A549 NSCLC) was > 100 µM. For the same molecule, the GI50 (ACHN renal) was 22.3 µM, the TGI (ACHN renal) was > 100 µM and the GI50 (BT-549 breast) was 12.5 µM. The TGI (BT-549 breast) was > 100 µM, the GI50 (CAKI-1 renal) was 35.4 µM and the TGI (CAKI-1 renal) was > 100 µM. For the same molecule, the GI50 (CCRF-CEM leukemia) was 0.95 µM, the TGI (CCRF-CEM leukemia) was > 100 µM and the GI50 (COLO 205 colon) was 3.78 µM. The TGI (COLO 205 colon) was > 100 µM, the GI50 (DU-145 prostate) was 3.83 µM and the TGI (DU-145 prostate) was > 100 µM. For the same molecule, the GI50 (HCC-2998 colon) was 5.22 µM, the TGI (HCC-2998 colon) was > 100 µM and the GI50 (HCT-116 colon) was 0.594 µM. For the same molecule, the TGI (HCT-116 colon) was > 100 µM, the GI50 (HCT-15 colon) was 10.6 µM and the TGI (HCT-15 colon) was > 100 µM. For the same molecule, the GI50 (HL-60(TB) leukemia) was 0.61 µM, the TGI (HL-60(TB) leukemia) was > 100 µM and the GI50 (HOP-62 NSCLC) was 10.6 µM. The TGI (HOP-62 NSCLC) was > 100 µM, the GI50 (HOP-92 NSCLC) was 27.1 µM and the TGI (HOP-92 NSCLC) was > 100 µM. The GI50 (HS 578T breast) was 19.3 µM, the TGI (HS 578T breast) was > 100 µM and the GI50 (HT29 colon) was 0.611 µM. For the same molecule, the TGI (HT29 colon) was > 100 µM, the GI50 (IGROV1 ovarian) was 0.581 µM and the TGI (IGROV1 ovarian) was > 100 µM. The GI50 (K-562 leukemia) was 0.351 µM, the TGI (K-562 leukemia) was > 100 µM and the GI50 (KM12 colon) was 2.64 µM. The TGI (KM12 colon) was > 100 µM, the GI50 (LOX IMVI melanoma) was 0.491 µM and the TGI (LOX IMVI melanoma) was > 100 µM. The GI50 (M14 melanoma) was 3.96 µM, the TGI (M14 melanoma) was > 100 µM and the GI50 (MALME-3M melanoma) was 29.6 µM. For the same molecule, the TGI (MALME-3M melanoma) was > 100 µM, the GI50 (MCF7 breast) was 2.09 µM and the TGI (MCF7 breast) was > 100 µM. The GI50 (MDA-MB-231 breast) was 6.57 µM, the TGI (MDA-MB-231 breast) was > 100 µM and the GI50 (MDA-MB-435) was 0.642 µM. The TGI (MDA-MB-435) was > 100 µM, the GI50 (MOLT-4 leukemia) was 4.08 µM and the TGI (MOLT-4 leukemia) was > 100 µM. For the same molecule, the GI50 (NCI-H226 lung) was 7.95 µM.

— PubChem BioAssay (NCI)
